Data set [1] deals with Candida albicans. As to the kind of experiment: Fungicidal activity against FCZ-resistant Candida albicans 17#. In kind it is functional.
Data set [2] in a line: Metabolic stability in mouse liver microsome assessed as half life. Type of data set: ADME. The conditions noted are these: liver microsomes. On the technique in general: Microsomes from liver hold many membrane-bound enzymes, among them those of drug oxidation.
Data set [3] addresses T1, Lanosterol 14-alpha demethylase (Candida albicans (strain SC5314 / ATCC MYA-2876) (Yeast), UniProt P10613). As to the kind of experiment: Inhibition of CYP51 of Candida albicans ATCC SC5314 assessed as increase in eburicol level at 2 ug/ml incubated for 16 hrs by GC-MS analysis (reference value: 0 %). The arrangement: scale not given: the % may be the effect or the level left. As to conditions: at 2 µg/mL.

Data set [4] in a line: Subacute toxicity in water diet-fed Kunming mouse assessed as effect on kidney at 100 to 200 mg/kg, IG measured after 7 to 14 days by microscopic analysis. Type of data set: organism-based. The conditions noted are these: in vivo, po, dose lower 100 mg/kg, time lower 7 day, dose upper 200 mg/kg, time upper 14 day.
The subject of data set [5] is Candida albicans. As to the kind of experiment: Fungicidal activity against FCZ-resistant Candida albicans 904. In kind it is functional.
The nature of data set [6]: Subacute toxicity in water diet-fed Kunming mouse assessed as animal death at 100 to 200 mg/kg, IG measured after 7 to 14 days of continuous administration. The conditions noted are these: in vivo, po, dose lower 100 mg/kg, time lower 7 day, dose upper 200 mg/kg, time upper 14 day. Type of data set: organism-based.
The nature of data set [7]: Subacute toxicity in water diet-fed Kunming mouse assessed as adverse reactions at 100 to 200 mg/kg, IG measured for 48 hrs. In kind it is organism-based. As to conditions: in vivo, po, dose 100-200 mg/kg.
Data set [8] concerns Candida albicans. As to the kind of experiment: Fungicidal activity against Candida albicans sc5314. Type of data set: functional.
The target in data set [9] is T1, Lanosterol 14-alpha demethylase. Put plainly: Inhibition of CYP51 of Candida albicans ATCC SC5314 assessed as increase in eburicol level at 4 ug/ml incubated for 16 hrs by GC-MS analysis (reference value: 0 %). Set-up: scale not given: the % may be the effect or the level left. The conditions noted are these: at 4 µg/mL.
Data set [10] has the same target. As to the kind of experiment: Inhibition of CYP51 of Candida albicans ATCC SC5314 assessed as increase in eburicol level at 1 ug/ml incubated for 16 hrs by GC-MS analysis (reference value: 0 %). The conditions noted are these: at 1 µg/mL. The arrangement: scale not given: the % may be the effect or the level left.
In data set [11] the test system is Candida albicans. Put plainly: Antifungal activity against FCZ-resistant Candida albicans 17# by CLSI based broth microdilution method. Type of data set: functional.
Data set [12] has as its target T1, Lanosterol 14-alpha demethylase. As to the kind of experiment: Inhibition of CYP51 of Candida albicans ATCC SC5314 assessed as increase in lanosterol level at 4 ug/ml incubated for 16 hrs by GC-MS analysis (reference value: 1.7 %). Set-up: scale not given: the % may be the effect or the level left. The conditions noted are these: at 4 µg/mL.
The nature of data set [13]: Acute toxicity in water diet-fed Kunming mouse assessed as animal death at 500 mg/kg, IG measured for 7 days. Type of data set: organism-based. As to conditions: in vivo, po, 168 h, time 7 day.

Usually MFC stands for the smallest concentration meeting the test's criterion for killing the fungus. Broadly, the half-life is the time in which the quantity being followed falls by half. As usually defined, the MIC is the least concentration at which growth counts as inhibited.

≈ marks a conversion by molar mass, not a printed value.

T1 sequence (P10613 whole entry): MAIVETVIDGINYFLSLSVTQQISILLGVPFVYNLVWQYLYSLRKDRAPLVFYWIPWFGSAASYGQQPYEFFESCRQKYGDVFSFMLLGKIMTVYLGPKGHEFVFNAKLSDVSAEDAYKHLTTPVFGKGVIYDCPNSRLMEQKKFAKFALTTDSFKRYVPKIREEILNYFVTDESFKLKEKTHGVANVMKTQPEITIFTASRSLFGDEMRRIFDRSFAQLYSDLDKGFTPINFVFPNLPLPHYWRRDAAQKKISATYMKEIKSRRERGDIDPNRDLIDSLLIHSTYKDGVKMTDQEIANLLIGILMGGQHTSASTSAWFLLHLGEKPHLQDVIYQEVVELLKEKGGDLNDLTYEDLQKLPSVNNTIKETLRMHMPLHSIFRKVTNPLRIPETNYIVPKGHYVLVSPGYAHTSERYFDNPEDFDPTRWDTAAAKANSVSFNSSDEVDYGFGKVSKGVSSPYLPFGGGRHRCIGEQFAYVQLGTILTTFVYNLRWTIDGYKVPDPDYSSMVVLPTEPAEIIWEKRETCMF

Take `Clc1ccc(C(Cn2ccnc2)[Se][Se]C(Cn2ccnc2)c2ccc(Cl)cc2Cl)c(Cl)c1` (stereo not drawn): the results for the minimal fungicidal concentration (MFC) in the data set with Candida albicans [1], against Candida albicans [5] and against Candida albicans [8] were more than 64 µg/mL, 4 µg/mL (≈ 6.27 µM) and 8 µg/mL (≈ 12.5 µM), respectively. Also, the half-life in [2] came to 41.1 min. Besides, the Activity in data set [3] was 62.8%; in data set [4], “Toxic”; in data set [6] it was “Non-Toxic”; in data set [7] it was “Non-Toxic”; in [9], 69.5%; in data set [10] it was 60.8%. In addition, the Activity in [12] is on record as 14.2%; in data set [13], “Non-Toxic”. The compound also yielded an MIC against Candida albicans [11] of 8 µg/mL (≈ 12.5 µM).
